# In paper PMC11532403 (Signal Transduction and Targeted Therapy, 2024):
# Read-outs that look alike come from different tables or passages of the source.
# Tests used:
# [1] = tested on: Baf3-CCDC6-RET M918T cells; assay: Proliferation assay (CellTiter-Glo); type: cell-based, murine; conditions: Mus musculus, read-out: Cellular Viability IC50
# Description: (§1) The cell lines HEK293T, Baf3, TT cell and NIH-3T3 were obtained from the Cell Resource Center, Peking Union Medical College (PCRC). HEK293T and NIH-3T3 were maintained in DMEM high glucose medium (#C3113-0500, Vivacell) supplemented with 10 % FBS (#10500064, Gibco) and 1 % Penicillin-Streptomycin (#15140122, Gibco). The murine Pro‐B cell line Baf3 was cultured in RPMI 1640 medium (#C3010, Vivacell) supplemented with 10 % FBS, 1 % Penicillin-Streptomycin and 1 ng/mL recombinant murine interleukin-3 (#213-13, PeproTech). All stably transformed BaF3 cells were cultured in RPMI 1640 without IL‐3. The TT MTC cell was grown in Ham's F-12K medium (#21127022, Gibco) supplemented with 10 % FBS and 1 % Penicillin-Streptomycin. Cells were cultured at 37 °C under 5 % CO2 and high humidity conditions.
# (§2) KIF5B-RET, CCDC6-RET and mutations were cloned into pCDHL vector and were verified by sequencing. Reah RET expression vectors were separately co‐transfected with psPAX2 and pMD2.G packaging plasmids into 60-70% confluent HEK 293T cells maintained in 2 mL of culture medium in six‐well plates using Polyethyleneimine (PEI) transfection grade. Virus containing media was harvested after 48 h and filtered with 0.45 μm membrane and stored at -80 °C prior to infection. For infection of Ba/F3 cells, 1 mL of viral supernatant and 8 μg/mL polybrene were added to 5 million cells per well in six‐well plates. Infected cells were selected with the addition of 1 μg/mL puromycin for 2 weeks in RPMI-1640/ 10% FBS/ 1 ng/mL IL-3 medium. Subsquently, puromycin-resistant cells were cultured in IL-3-free medium for 1 week and RET fusion proteins were confirmed by immunoblot analysis.
# (§3) Cell viability was assessed by luminescence using CellTiter-Glo 2.0 assay (Promega). IC50 curve fitting was performed using GraphPad Prism 9.0.
# [2] = tested on: Baf3-CCDC6-RET V804M cells; assay: Proliferation assay (CellTiter-Glo); type: cell-based, murine; conditions: Mus musculus, read-out: Cellular Viability IC50
# Description: as §1, §2, §3
# Baf3-CCDC6-RET WT cells = assay: Proliferation assay (CellTiter-Glo); type: cell-based, murine; conditions: Mus musculus, read-out: Cellular Viability IC50
# Description: as §1, §2, §3
# [3] = tested on: Baf3-KIF5B-RET M918T cells; assay: Proliferation assay (CellTiter-Glo); type: cell-based, murine; conditions: Mus musculus, read-out: Cellular Viability IC50
# Description: as §1, §2, §3
# [4] = tested on: Baf3-KIF5B-RET V804M cells; assay: Proliferation assay (CellTiter-Glo); type: cell-based, murine; conditions: Mus musculus, read-out: Cellular Viability IC50
# Description: as §1, §2, §3
# Baf3-KIF5B-RET WT cells = assay: Proliferation assay (CellTiter-Glo); type: cell-based, murine; conditions: Mus musculus, read-out: Cellular Viability IC50
# Description: as §1, §2, §3
# [5] = 28-day repeat-dose toxicity; type: in vivo; conditions: SD, rat, plasma, po; for AUC(0-t): read-out: AUClast at STD10, day 28; for Cmax: read-out: Cmax at STD10, day 28
# SD rats = assay: 28-day repeat-dose toxicity; type: in vivo
# [6] = tested on: Salmonella typhimurium and Escherichia coli; type: cell-based
# [7] = preclinical SD rat repeated administration
compound,measurement,setting,value
"COc1ccc(CN2C3CC2CN(c2ccc(-c4cc(N5CC(C)(O)C5)cn5ncc(C#N)c45)cn2)C3)cn1 [SY-5007, 6-(3-hydroxy-3-methylazetidin-1-yl)-4-(6-(6-((6-methoxypyridin-3-yl)methyl)-3,6-diazabicyclo[3.1.1]heptan-3-yl)pyridin-3-yl)pyrazolo[1,5-a]pyridine-3-carbonitrile]",IC50,[1],0.00544 µM
same,IC50,[2],0.0271 µM
same,IC50,Baf3-CCDC6-RET WT cells,0.0102 µM
same,IC50,[3],0.0136 µM
same,IC50,[4],0.0453 µM
same,IC50,Baf3-KIF5B-RET WT cells,0.00965 µM
same,AUC(0-t),"[5]; female, females 60 mg/kg",122 µg·h/mL
same,Cmax,"[5]; female, females 60 mg/kg",14.9 µg/mL
same,AUC(0-t),"[5]; male, males 30 mg/kg",111 µg·h/mL
same,Cmax,"[5]; male, males 30 mg/kg",8.17 µg/mL
same,STD10,"SD rats; female SD rats, GLP long toxicity study",60 mg/kg
same,STD10,"SD rats; females, 28 days",60 mg/kg
same,STD10,"SD rats; male SD rats, GLP long toxicity study",30 mg/kg
same,STD10,"SD rats; males, 28 days",30 mg/kg
same,Electrolyte abnormalities (blood PK),SD rats; [7],"? Abnormalities such as blood PK were found in the preclinical SD rat and Beagle repeated administration test of this product, and the relevant regulations were carried out in consideration of the fact that similar mechanism of action drugs have been reported."
same,"Plasma protein: TP, ALB, A/G",SD rats; [7],"? TP, ALB, A/G were abnormal in the repeated administration test of preclinical SD rats of this product, and considering that drugs with similar mechanisms of action have been reported, relevant provisions are made."
same,TG (hyperlipidemia),SD rats; [7],"? TG is abnormal in the repeated administration test of preclinical SD rats of this product, and considering that drugs with similar mechanisms of action have been reported, relevant provisions are made."
same,Bleeding tendency: gastric mucosa and ileum findings,"SD rats; preclinical SD rats, repeated dosing","? This drug was found to have gastric mucosal reddening and ileal discolouration in preclinical SD rats and Beagle dogs in repeated dosing tests, so the relevant provisions were made."
same,Kidney: creatinine,SD rats; repeat dose study in SD rats,elevated creatinine
same,Ames test result,[6],negative
